Assay [1] can be described thus: Test in pineapple flavoured drink. The conditions noted are these: 1 ppm; water, 8% sugar, 0.1% citric acid, pineapple flavour 0.03%. How it is done: (§1) Samples were prepared and evaluated by expert tasters. Tasters were asked to describe the samples focusing on authentic taste, mouthfeel, fullness, salty-ness, salivation, umami, sweetness, juiciness, richness, long lastingness and fattiness.
Test in Pineapple Flavoured Drink:
Base is water, 8% sugar, 0.1% citric acid and proprietary pineapple flavour at 0.03%
(§2) Samples were evaluated by expert tasters. Tasters were asked to describe the samples focusing on authentic taste, mouthfeel, fullness, salty-ness, salivation, umami, sweetness, juiciness, richness, long lastingness and fattiness.

Assay [2] is described as follows: Tasting in strawberry drink. The conditions noted are these: 0.5 ppm; 7% sucrose, 0.1% citric acid, strawberry flavour 0.015%. On the procedure: as §1
Comparison in a Strawberry Drink
Base is 7% sucrose, 0.1% citric acid, and a proprietary strawberry flavour @ 0.015%
as §2
Base is water, 7% sucrose, 0.1% citric acid, proprietary strawberry flavour @ 0.015%
(§3) Samples were evaluated by expert tasters. Tasters were asked to describe the samples focusing on authentic taste, mouthfeel, fullness, salivation, salty-ness, umami, sweetness, juiciness, richness, long lastingness and fattiness.
Test in a Strawberry Drink
Base is 7% sucrose, 0.1% citric acid, proprietary strawberry flavour @ 0.015%

A short description of assay [3]: Test in pear flavoured drink. As to conditions: 1 ppm; water, 7% sugar (8% elsewhere in the source), 0.1% citric acid, pear flavour 0.025%. On the procedure:
as §1
Test in Pear Flavoured Drink:
Base: water, 7% sugar, 0.1% citric acid, proprietary pear flavour at 0.025%
as §2
Comparison in a Pear Drink
Base is water, 8% sugar, 0.1% citric acid, proprietary pear flavour at 0.025%

Assay [4] is described as follows: Tasting in vanilla milk 0.15% fat. The conditions noted are these: 1 ppm, 4% sucrose, Vaniline 10 ppm + vanilla extract 0.03%. How it is done: as §1
Base: Milk 0.15% fat, sweetened with 4% sucrose by weight, flavoured with proprietary
Vaniline flavour @ 10 ppm+Vanilla ext. @ 0.03%
as §2
Comparison in a Vanilla Milk Drink
Vaniline @ 10 ppm+Vanilla extract @ 0.03%
Base: Milk 0.15% fat, sweetened with 4% sucrose by weight, flavoured with proprietary Vaniline @ 10 ppm+Vanilla extract @ 0.03%

A short description of assay [5]: Tasting in strawberry flavoured sugar sweetened yoghurt. As to conditions: 1.5% fat yoghurt, 8% sucrose, strawberry flavour 0.015%. On the procedure:
Strawberry Flavoured Sugar Sweetened Yoghurt
In a 1.5% fat yoghurt base, sweetened with 8% sucrose by weight, flavoured with a proprietary strawberry flavour @ 0.015% several different N-acyl aminoacids were added.
as §1
Test in a Strawberry Yoghurt
Base: Yoghurt 1.5% fat yoghurt, 8% sucrose, proprietary strawberry flavour @ 0.015%
as §3

Assay [6] is described as follows: Tasting in Activa strawberry yoghurt. The conditions noted are these: 2 ppm, 13.5% sugar, 3.2% fat. From the text: Activa Strawberry Yoghurt
In a Full fat, Activa strawberry flavoured yoghurt containing 13.5% sugar, 3.2% fat C18:2-gaba and C18:0-leu at 2 ppm

Assay [7] is described as follows: Tasting in mango juice drink, 1% clear mango juice. The conditions noted are these: 8% sucrose, 0.1% citric acid, mango flavour 0.05%. How it is done:
Comparison in a Mango Juice Drink
Base is 8% sucrose, 0.1% citric acid, 1% clear mango juice, and a proprietary mango flavour at 0.05%.
as §2
Base is water, 8% sucrose, 0.1% citric acid, 1% clear mango juice, proprietary mango flavour @ 0.05%
as §3
Base is water, 8% sucrose, 0.1% citric acid, 1% clear mango juice, proprietary mango flavour @0.05%
(§4) Samples were evaluated by expert tasters. Tasters were asked to describe the samples focusing on authentic taste, mouthfeel, fullness, salty-ness, salivation, umami, sweetness, juiciness, richness, long lastingness and fattiness
Base is 8% sucrose, 0.1% citric acid, 1% clear mango juice, proprietary mango flavour @ 0.05%
(§5) Samples were evaluated by expert tasters. Tasters were asked to describe the samples focusing on authentic taste, mouth feel, fullness, salivation, salty-ness, umami, sweetness, juiciness, richness, long lastingness and fattiness
Base is water, 8% sucrose, 0.1% citric acid, 1% clear mango juice, proprietary mango flavour @ 0.05%.
Test in a Mango Juice Drink

Assay [8] can be described thus: Tasting in low fat mayonnaise. The conditions noted are these: 0.5 ppm in low fat mayonnaise (27% fat). On the procedure: (§6) The following formulations were prepared and tasted by trained panelists.
Low fat Mayonnaise (27% Fat, 9% carbohydrates (of which 5% sugar), 1.4% salt)
as §1
Calve 60% Reduced Fat Mayonnaise
Base is Calve Mayonnaise 60% reduced fat (market Product)
(§7) Samples were prepared and evaluated by expert tasters. Tasters were asked to describe the samples focusing on authentic taste, mouthfeel, fullness, salivation, salty-ness, umami, sweetness, juiciness, richness, long lastingness and fattiness.
Low fat Mayonnaise (27% Fat)

Assay [9] in a line: Tasting on fried potato snack product. The conditions noted are these: 35% fat, cheese seasoning. How it is done: as §6
A snack product consisting of a fried potato base, containing 35% fat and flavored with cheese seasoning containing salt, MSG, dairy, organic acids, sugars, and a flavour formulation. The following compounds were added to the snack product at the indicated levels and the tasting results are reported: […]

A further assay in a line: Tasting in soy sauce. As to conditions: 0.5 ppm in pure salt reduced kikoman soy sauce (9% salt). How it is done: as §6
(§8) Salt level pure product between 5-40%
(§9) Salt level in application 0.3-1.0%
as §1
Test on Kikkoman Soy Sauce Low Salt
Base is Kikkoman soy sauce
as §7

Assay [10] in a line: Tasting on air expanded base. The conditions noted are these: 3% fat, cheese seasoning. On the procedure:
as §6
An air expanded base (Rice, wheat, Tapioca, potato, salt, sugar, modified starch), containing 3% fat and flavored with cheese seasoning containing salt, MSG, dairy, organic acids, sugars and flavor. The following compounds were added to the base at the indicated levels and the tasting results are reported: […]

The nature of the next assay: Tasting in beef jus. As to conditions: 40 PPB in beef jus. On the procedure: as §6, §7
Assay [11] can be described thus: Tasting in chicken bouillon. As to conditions: 0.7% salt, 0.5% fat. How it is done:
as §6
Standard Chicken bouillon base, 0.7% salt, 0.5% fat
as §7
Test in Soups and Bouillons
Standard Chicken Bouillon Base

A short description of a further assay: Tasting in fish sauce. As to conditions: 0.5 ppm in pure fish sauce (27% salt). On the procedure: as §6, §8, §9, §7
A further assay can be described thus: Tasting in cheese sauce. As to conditions: 0.5 PPM in cheese sauce 5% fat 1.6% salt. On the procedure:
as §6
Cheese sauce: 5% fat 1.6% salt
as §7
Cheese Sauce: 5% Fat 1.6% Salt

A short description of assay [12]: Tasting in low fat salad dressing. As to conditions: 0.5 ppm in low fat salad dressing (13.6% fat). How it is done: as §6
low fat salad dressing (13.6% Fat, 8%, carbohydrates (of which 5.3% sugar))
as §1
Calve Salad Dressing Low Fat (13.6% Fat):
Base is Calve salad dressing (market product)
as §7
Low fat salad dressing (13.6% Fat)

Assay [13] can be described thus: Tasting in spreadable cheese. The conditions noted are these: 0.5 PPM in spreadable cheese (Eru). On the procedure: as §6, §1
Test on “Eru Prestige” Spreadable Cheese
Base is Eru prestige (market product)
as §7

The next assay can be described thus: Test in orange beverage. The conditions noted are these: 1 ppm; water, 7% sugar (8% sucrose elsewhere in the source), 0.1% citric acid, orange flavour 0.06%. How it is done: as §2
Base is water, 7% sugar, 0.1% citric acid, proprietary orange flavour @ 0.06%.
as §4
Base is water, 7% sugar, 0.1% citric acid, proprietary orange flavour @ 0.06%
as §5
Samples were evaluated by expert tasters. Tasters were asked to describe the samples focusing on authentic taste, mouthfeel, fullness, salivation, sweetness, juiciness, richness, long lastingness and fattiness
Comparison in an Orange Drink
Base: water, 8% sucrose, 0.1% citric acid, proprietary orange flavour @ 0.06%.

A short description of assay [14]: Tasting in mango still beverage, 4% clear mango juice. As to conditions: 0.5 ppm; 4% clear mango juice (30% reduced juice). How it is done:
(§10) Mango Flavoured Still Beverage Containing Different Levels of Juice,
(§11) In a Mango flavoured still beverage, sweetened with 8% sucrose and containing 0.1% citric acid and 1%, 4% and 6% clear mango juice flavoured with a proprietary Mango flavour @ 0.05%, C18:2-gaba and C18:2-Pro were added, as such (separate) and in combination.
(§12) All samples were evaluated by expert tasters. Tasters were asked to describe the samples focusing on authentic taste, juicy mouthfeel, enhancement, richness, juiciness, long lastingness, salivation, sweetness.
In a Mango flavoured still beverage, sweetened with 8% sucrose & containing 0.1% citric acid and 4% clear mango juice flavoured with Mango flavour @ 0.05%, C18:2-gaba and C18:2-Pro were added, as such (separate) and in combination.
Base is water, 8% sucrose, 0.1% citric acid, 4% clear mango juice (30% reduced juice), flavoured with Mango flavor, dosed at 0.05%

The nature of the next assay: Test on Tang. The conditions noted are these: 1 ppm, orange flavoured Tang. How it is done:
In an orange flavoured Tang powdered soft drink (market product) sweetened with sucrose plus high intensity sweetener and containing citric acid, C18:2-gaba and C18:2-pro were tested.
All samples were evaluated by expert tasters. Tasters were asked to describe the samples focusing on authentic taste, mouthfeel & body, enhancement, richness, juiciness, long lastingness, salivation, sweetness, masking off notes of high intensity sweetener
Base is Orange Flavoured Tang

The nature of the next assay: Test in lemon beverage. The conditions noted are these: 1 ppm; water, 7% sucrose, 0.15% citric acid, lemon flavor. On the procedure: as §2
Basis water, 7% sucrose, 0.15% citric acid, proprietary lemon flavor
as §4

A short description of assay [15]: Tasting in mango still beverage, 6% clear mango juice. The conditions noted are these: 0.5 ppm; 6% clear mango juice (full juice). On the procedure: as §10, §11, §12
In a Mango-flavoured still beverage, sweetened with 8% sucrose & containing 0.1% citric acid and 6% clear mango juice flavoured with Mango flavour@0.05%, C18:2-gaba and C18:2-Pro were added, as such (separate) and in combination.
Base is water, 8% sucrose, 0.1% citric acid, 6% clear mango juice (full juice), flavoured with Mango flavor, dosed at 0.05%.

Each structure is given as a SMILES string. “Also recorded” adds a separate entry of the source.

We go through 4 compounds from patent US11091429B2, “Organic compounds” (Givaudan SA, priority 2012, dated 2021).

On to `CCCCC/C=C\C/C=C\CCCCCCCC(=O)N[C@@H](CC(N)=O)C(=O)O` [C18:2-asn, N-linoleoyl-Asn], for which the tasting result in assay [1] is “very ripe, jammy, long lasting, authentic”; in assay [2], “fuller, sweeter, jammy aftertaste, long lasting”; in [3], “very ripe, authentic pear, very juicy, long lasting”; in assay [4], “sweeter more fatty round”; in assay [5] (2 ppm), “green fresh, nice, fatty nice fuller”.
With `CCCCCCCCCCCCCCCCCC(=O)NC(CC(C)C)C(=O)O` (stereo not drawn) [C18:0-leu], the tasting result was “fruity authentic strawberry, stronger strawberry, ripe, long lasting, juicy” in assay [2]; “very juicy strawberry full, 3D, stronger strawberry, long lasting and creamy” in assay [6]; “fruity strawberry like, ripe, long lasting” in [7] (2 ppm); “fruity authentic strawberry, stronger strawberry, ripe, long lasting, juicy, creamy yoghurt” in [5] (2 ppm); “Very juicy full, 3D, stronger nicer strawberry, long lasting nice creamy aftertaste” in [5] (2 ppm, listed as C18:0 leu); “Very juicy full, 3D, stronger nicer strawberry, salivating long lasting” in assay [5] (5 ppm).
Take `CCCCCCCC/C=C\CCCCCCCC(=O)NC1(C(=O)O)CC1` [C18:1-ACCA, N-oleoyl 1-amino-cyclopropyl carboxylic acid]: the tasting result in assay [8] is “nicely balanced compositions with a full mouthfeel and a more eggy taste; also recorded: Nice balanced, full mouthfeel, increased eggyness”; in [9] (0.5 ppm on fried potato snack) it was “Increased salty”; in [9] (1 ppm on fried potato snack), “Increased Umami, salty”; in “Tasting in soy sauce”, “strong upfront saltiness lingering, very strong saltiness”; in assay [10] (0.5 ppm on air expanded base), “Increased salty”; in [10] (1 ppm on air expanded base), “Increased Umami, salty”. The tasting result was “more salty, fatty, total profile is enhanced” in “Tasting in beef jus”; “Saltier, Stronger and more umami” in [11] (0.2 PPM in chicken bouillon base); “More body and fatty notes, salivating and good aftertaste” in [11] (0.5 PPM in chicken bouillon base); “strong saltiness lingering and with a strong body and mouthfeel” in “Tasting in fish sauce”; “Strong umami, cheese bite, expanding” in “Tasting in cheese sauce”; “more mouthfeel with body and less acidic; also recorded: Increased mouthfeel body less acidic” in assay [12]. In addition, the tasting result in [13] is on record as “Strong umami, lingering cheese bite”.
Regarding `CCCCC/C=C\C/C=C\CCCCCCCC(=O)N1CCC[C@H]1C(=O)O` [C18:2-Pro, N-linoleoyl-Pro], the tasting result was “very juicy, authentic orange” in “Test in orange beverage”; “more sweet, sugar-like, very juicy and long lasting sweet, salivating” in assay [14]; “very fresh, enhances sweet juicy orange notes, characteristic of authentic fresh orange fruit. Additionally, the off-notes of the high intensity sweetener were suppressed” in the assay “Test on Tang”; “more sweet, sugar-like, very juicy and long lasting sweet, salivating” in assay [7] (0.5 ppm); “very juicy, more citral like, very authentic” in the assay “Test in lemon beverage”; “more sweet, sugar-like, very juicy and long lasting sweet, salivating, syrupy” in assay [15].
